The conditions of series [1]: crystalline polymorph, as stated in WO2005/007081; cited from earlier work.
The conditions of series [2]: cited from earlier work; for polymorph stability: as stated in WO2005/007081.
Series [3] in a line: hygroscopic character of the polymorph forms. Type of series: physicochemical. To be noted: crystals from methanol-methyl tertiary-butyl ether at −70° C. (example 17). On the procedure:
(§1) The two polymorph forms (forms A and B) of the crystalline treprostinil diethanolamine salt were first described in patent specification WO2005/007081. The polymorph forms were characterized by their melting point, X-ray powder diffraction pattern, DSC (Differential Scanning calorimetry) and TGA (Thermogravimetric Analysis) curves, and by their hygroscopic character.
(§2) Polymorph form B of treprostinil diethanolamine salt was obtained also if the salt was dissolved in methanol, the solution was set to opalescent with methyl tertiary-butyl ether at 45° C. and then crystallisation was completed at room temperature (yield 87%) (example 16.). […] This form is named polymorph form C (example 17.).

Series [4] is described as follows: relative stability / transformation of the polymorph forms. It is filed as physicochemical. As to conditions: on the basis of the DSC curve; transforms in the DSC tube into the more stable, higher melting form.
Excerpt: as §1
Publication Organic Process & Development, 2009, 13, 242-249. (Crystallization Process Development for Stable Polymorph of Treprostinil; Batra, H.; Penmasta, R.; Phares, K.; Staszewski, J.; Tuladhar, S. M; D. A. Walsh, United Therapeutics) describes in detail the physical characteristics of the two polymorphs and the experiments carried out for their preparation.
as §2
DSC: • Instrument: METTLER TOLEDO DSC1 STARe System, Stare basic V9.30 • Method: Starting temperature: 30° C. • Final temperature: 150° C. • Heating rate: 5° C./min • Amount: 2-6 mg, perforated aluminum crucible (40 μl)

This is an account of results in patent US11319274B2, “Process for the preparation of polymorph form B of treprostinil diethanolamine salt” (CHINOIN GYÓGYSZER ÉS VEGYÉSZETI TERMÉKEK GYÁRA ZRT., priority 2018, dated 2022).

Where a name gives a salt, the structure may show the parent alone. Read-outs that look alike come from different tables or passages of the source.

`CCCCC[C@H](O)CC[C@@H]1[C@H]2Cc3cccc(OCC(=O)O)c3C[C@H]2C[C@H]1O` [form A, (1R,2R,3aS,9aS)-2-[2-Hydroxy-1-[3(S)-hydroxyoctyl]-2,3,3a,4,9,9a-hexahydro-1H-benz[f]inden-5-yloxy] acetic acid diethanolamine salt]: the hygroscopic character entry in series [1] is on record as “hygroscopic”. Besides, in series [2] (Organic Process & Development, 2009, 13, 242-249), the transformation on standing entry was “on standing transforms into the thermodynamically more stable form B”. Further, in series [2], the polymorph stability entry is “metastable”. Moreover, the transformation in suspension result in series [2] (suspension in organic solvents (1,4-dioxane, isopropanol, tetrahydrofuran, toluene), agitation at different temperatures, WO2005/007081) was “transforms into form B on agitation”.

For `CCCCC[C@H](O)CC[C@@H]1[C@H]2Cc3cccc(OCC(=O)O)c3C[C@H]2C[C@H]1O` [form B, (1R,2R,3aS,9aS)-2-[2-Hydroxy-1-[3(S)-hydroxyoctyl]-2,3,3a,4,9,9a-hexahydro-1H-benz[f]inden-5-yloxy] acetic acid diethanolamine salt], in series [1], the hygroscopic character entry is listed as “much less hygroscopic”. Further, the polymorph stability entry in series [2] was “more stable”.

On to `CCCCC[C@H](O)CC[C@@H]1[C@H]2Cc3cccc(OCC(=O)O)c3C[C@H]2C[C@H]1O` [polymorph form C, (1R,2R,3aS,9aS)-2-[2-Hydroxy-1-[3(S)-hydroxyoctyl]-2,3,3a,4,9,9a-hexahydro-1H-benz[f]inden-5-yloxy] acetic acid diethanolamine salt], for which the hygroscopic character result in series [3] is “highly hygroscopic”. For the same compound, the polymorph stability result in series [4] is “less stable form”.
